What was measured:
Assay in all cases: relative viability (nuclei count vs DMSO), 5 days (fraction); higher = more cells survive
YM155 + OSI-027 = compound: COCC[n+]1c2c(n(Cc3cnccn3)c1C)C(=O)c1ccccc1C2=O [YM155] + COc1cccc2cc(-c3nc([C@H]4CC[C@H](C(=O)O)CC4)n4ncnc(N)c34)[nH]c12 [OSI-027] (partner 0.5 µM)
How it was run: (§1)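 After 5 days of treatment, lung cancer cells in 1536-well plates were fixed and stained in a single step (final 0.05% Triton X-100, 1% formaldehyde, 1 ug/ml Hoechst) and their nuclei counted on 4× images. Treatment had been applied by pin tool the day after seeding as one drug alone or as a fixed anchor-drug dose with five library-drug doses (not always all listed) in √10 steps. Relative viability is the nuclei count of treated wells divided by that of vehicle wells, and values are medians of duplicate plates.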

YM155 + Alpelisib = compound: COCC[n+]1c2c(n(Cc3cnccn3)c1C)C(=O)c1ccccc1C2=O [YM155] + Cc1nc(NC(=O)N2CCC[C@H]2C(N)=O)sc1-c1ccnc(C(C)(C)C(F)(F)F)c1 [Alpelisib] (partner 2 µM)
How it was run: as §1

YM155 + Vorinostat = compound: COCC[n+]1c2c(n(Cc3cnccn3)c1C)C(=O)c1ccccc1C2=O [YM155] + O=C(CCCCCCC(=O)Nc1ccccc1)NO [Vorinostat] (partner 1 µM)
How it was run: as §1

YM155 + Linsitinib = compound: COCC[n+]1c2c(n(Cc3cnccn3)c1C)C(=O)c1ccccc1C2=O [YM155] + C[C@]1(O)C[C@@H](c2nc(-c3ccc4ccc(-c5ccccc5)nc4c3)c3c(N)nccn32)C1 [Linsitinib] (partner 1 µM)
How it was run: as §1

Cell Line	relative viability (YM155 + OSI-027; first compound 0.002 µM)	relative viability (YM155 + OSI-027; first compound 0.006325 µM)	relative viability (YM155 + OSI-027; first compound 0.02 µM)	relative viability (YM155 + OSI-027; first compound 0.06325 µM)	relative viability (YM155 + Alpelisib; first compound 0.002 µM)	relative viability (YM155 + Alpelisib; first compound 0.006325 µM)	relative viability (YM155 + Alpelisib; first compound 0.02 µM)	relative viability (YM155 + Alpelisib; first compound 0.06325 µM)	relative viability (YM155 + Vorinostat; first compound 0.002 µM)	relative viability (YM155 + Vorinostat; first compound 0.006325 µM)	relative viability (YM155 + Vorinostat; first compound 0.02 µM)	relative viability (YM155 + Vorinostat; first compound 0.06325 µM)	relative viability (YM155 + Linsitinib; first compound 0.002 µM)	relative viability (YM155 + Linsitinib; first compound 0.006325 µM)	relative viability (YM155 + Linsitinib; first compound 0.02 µM)	relative viability (YM155 + Linsitinib; first compound 0.06325 µM)
NCI-H1355	0.386	0.394	0.454	0.47	0.846	0.869	0.932	0.963	0.58	0.615	0.718	0.635	0.821	0.832	0.948	0.875
NCI-H2085	0.742	0.783	0.809	0.421	0.955	0.833	0.731	0.559	0.677	0.795	0.757	0.625	0.822	0.743	0.852	0.517
A-427	0.478	0.562	0.597	0.458	1.08	1.06	1.09	1.12	0.812	0.849	0.838	0.629	1.06	1.22	1.12	1.09
LOU-NH91	0.689	0.751	0.757	0.762	0.767	0.674	0.76	0.745	0.883	0.921	0.949	0.932	1.05	0.879	0.97	0.978
CAL-12T	0.657	0.619	0.746	0.529	1.02	1.29	0.921	0.25	0.624	0.723	0.623	0.412	0.818	0.98	0.9	0.781
NCI-H520	0.244	0.242	0.29	0.326	0.858	1	0.853	0.871	0.824	0.695	0.736	0.729	0.895	1.13	1.04	0.957
LCLC-103H	0.465	0.436	0.408	0.464	1	0.997	0.946	1.09	0.732	0.824	0.864	0.802	0.999	0.974	1.16	1.16
NCI-H1651	0.685	0.774	0.88	0.585	0.979	0.904	0.925	0.694	0.569	0.538	0.586	0.605	1.04	0.94	1	0.642
NCI-H2347	0.371	0.504	0.421	0.421	1.01	0.896	0.987	0.67	0.506	0.488	0.521	0.476	0.965	0.93	1.1	0.618
LC-2-ad	0.804	0.917	0.773	0.621	0.768	0.977	1	0.392	0.682	0.637	0.705	0.65	0.806	0.957	0.814	0.753

From the supplement of paper PMC10307832
